The subject of one assay is P. aeruginosa BCCP. The conditions noted are these: cited from earlier work.
In the next assay the test system is NgBCCP. It counts as biochemical, Neisseria gonorrhoeae.
In another assay the target is N. europaea BCCP. To be noted: pH 7; cited from earlier work.
For assay [1], the target named is mixed-valence NgBCCP (P heme). To be noted: read-out: Kapp (apparent dissociation constant); pH 6.
Assay [2] deals with T1, NgBCCP (Neisseria gonorrhoeae bacterial peroxidase) (Neisseria gonorrhoeae, UniProt Q5F5Z9).
T1 construct: gene NGO_1769; globular domain only (lipid anchor and AAEAP linker absent), pelB signal peptide, C-terminal His-tag; E. coli BL21(DE3) with pEC86; 38 kDa; di-heme c; Ca-dependent monomer/dimer equilibrium, dimer in crystal
T1 sequence (Q5F5Z9 59-387): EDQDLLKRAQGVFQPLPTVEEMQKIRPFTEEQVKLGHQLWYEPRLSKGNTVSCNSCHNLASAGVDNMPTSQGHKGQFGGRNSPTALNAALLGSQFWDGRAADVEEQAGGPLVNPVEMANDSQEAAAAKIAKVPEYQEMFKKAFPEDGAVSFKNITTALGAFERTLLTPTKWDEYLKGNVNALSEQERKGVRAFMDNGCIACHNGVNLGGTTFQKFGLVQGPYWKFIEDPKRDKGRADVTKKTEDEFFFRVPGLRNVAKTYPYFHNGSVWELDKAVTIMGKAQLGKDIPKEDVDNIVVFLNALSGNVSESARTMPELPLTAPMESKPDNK
Nature of the assay: steady-state kinetics, ABTS oxidation at […] nm. The format is biochemical.

Results on 2 molecules are retold here after article PMC10094543 (International Journal of Molecular Sciences, 2023).

One may read the Ki as the equilibrium dissociation constant of an inhibitor or competing ligand from its target.

“And” between values parts separate entries of the source, which are not always exact repeats. Identical values can stand only once. Like-named read-outs stand apart in the source and are kept apart here.

As to azide, in the assay with P. aeruginosa BCCP, the inhibition mechanism result is listed as “non-competitive”. The Ki on P. aeruginosa BCCP (pH 6) is 3.1 mM. In addition, in the assay on NgBCCP, the Vmax app is 0.56 ± 0.003 µM/s and 0.53 ± 0.004 µM/s and 0.71 ± 0.001 µM/s and 0.66 ± 0.010 µM/s and 0.59 ± 0.001 µM/s; the “a (α)” value is given as 2.4; the “b (β)” value worked out at 0.0. Moreover, the mechanism of inhibition result in the assay on NgBCCP (pH 7.5) was “non-competitive/partially competitive”. Also, the Ki on N. europaea BCCP was 4.7 mM. Further, the Kd in assay [1] is 3.8 mM.

On to `c1c[nH]cn1` [imidazole], for which, in assay [2], the affinity, expressed as Ki, was 9 ± 4 mM. For the same molecule, in the assay on NgBCCP, the Vmax app was 0.55 ± 0.01 µM/s and 0.49 ± 0.01 µM/s and 0.48 ± 0.01 µM/s and 0.65 ± 0.01 µM/s and 0.44 ± 0.02 µM/s and 0.63 ± 0.04 µM/s and 0.58 ± 0.02 µM/s; the “a (α)” value was 2.8; the “b (β)” value is given as 0.0; the mechanism of inhibition entry is reported as “partially uncompetitive”. On NgBCCP (pH 7.5), the Ki was found to be 9 ± 4 mM and the mechanism of inhibition entry is recorded as “non-competitive/partially competitive”.
